According to ChEMBL document CHEMBL1201862, “PubChem BioAssay data set” (2004):
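Growth conditions: 96-well plates. Treatment: test compound, 48 hours, 5 concentrations. Analysis: linear interpolation between bracketing concentrations; unreached endpoints set to highest concentration. GI50: concentration for 50% inhibition of growth.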 The source made the active and inactive calls. Rule as the data show it: active = GI50 up to about 1.1 µM and inactive = higher.

Tests used:
Test in all cases: NCI anticancer screen, dose series, 48 h
786-0 = system: 786-0
A549 = system: A549
ACHN = system: ACHN
BT-549 = system: BT-549
CAKI-1 = system: CAKI-1
CCRF-CEM = system: CCRF-CEM
COLO 205 = system: COLO 205
DU-145 = system: DU-145
EKVX = system: EKVX
HCC 2998 = system: HCC 2998
HCT-116 = system: HCT-116
HCT-15 = system: HCT-15
HOP-62 = system: HOP-62
HOP-92 = system: HOP-92
HT-29 = system: HT-29
Hs-578T = system: Hs-578T
IGROV-1 = system: IGROV-1
K562 = system: K562
KM12 = system: KM12
LOX IMVI = system: LOX IMVI
MCF7 = system: MCF7
MDA-MB-231 = system: MDA-MB-231
MDA-MB-435 = system: MDA-MB-435
MDA-N = system: MDA-N
MOLT-4 = system: MOLT-4
NCI-H226 = system: NCI-H226
NCI-H23 = system: NCI-H23
NCI-H460 = system: NCI-H460
NCI-H522 = system: NCI-H522
NCI/ADR-RES = system: NCI/ADR-RES
OVCAR-3 = system: OVCAR-3
OVCAR-4 = system: OVCAR-4
OVCAR-5 = system: OVCAR-5
OVCAR-8 = system: OVCAR-8
PC-3 = system: PC-3
RPMI-8226 = system: RPMI-8226
RXF 393 = system: RXF 393
SF-268 = system: SF-268
SF-295 = system: SF-295
SF-539 = system: SF-539
SK-MEL-28 = system: SK-MEL-28
SK-MEL-2 = system: SK-MEL-2
SK-MEL-5 = system: SK-MEL-5
SK-OV-3 = system: SK-OV-3
SN12C = system: SN12C
SNB-19 = system: SNB-19
SNB-75 = system: SNB-75
SW-620 = system: SW-620
T47D = system: T47D
TK-10 = system: TK-10
U-251 = system: U-251
UACC-257 = system: UACC-257
UACC-62 = system: UACC-62
UO-31 = system: UO-31

CCOC(=O)/C=C(/C(=O)OCC)n1cc(C)c(=O)n(Cc2cnnn2CCCCOC(C)=O)c1=O
GI50 (786-0): 15.6 µM (inactive)
GI50 (A549): > 100 µM (inactive)
GI50 (ACHN): 11.2 µM (inactive)
GI50 (BT-549): 10.5 µM (inactive)
GI50 (CAKI-1): 5.79 µM (inactive)
GI50 (CCRF-CEM): 1.13 µM (inactive)
GI50 (COLO 205): 3.54 µM (inactive)
GI50 (DU-145): > 100 µM (inactive)
GI50 (EKVX): 21.8 µM (inactive)
GI50 (HCC 2998): > 10 µM (inactive)
GI50 (HCT-116): 15.1 µM (inactive)
GI50 (HCT-15): 12.6 µM
GI50 (HOP-62): > 100 µM (inactive)
GI50 (HOP-92): 0.0906 µM (active)
GI50 (HT-29): 19.2 µM (inactive)
GI50 (Hs-578T): 45.5 µM (inactive)
GI50 (IGROV-1): 19 µM (inactive)
GI50 (K562): 18.7 µM (inactive)
GI50 (KM12): 44.2 µM (inactive)
GI50 (LOX IMVI): 18.4 µM (inactive)
GI50 (MCF7): 13.6 µM (inactive)
GI50 (MDA-MB-231): 64.6 µM (inactive)
GI50 (MDA-MB-435): 21.2 µM (inactive)
GI50 (MDA-N): 55.3 µM (inactive)
GI50 (MOLT-4): 18.2 µM (inactive)
GI50 (NCI-H226): > 100 µM (inactive)
GI50 (NCI-H23): 28.7 µM (inactive)
GI50 (NCI-H460): 23.3 µM (inactive)
GI50 (NCI-H522): 3.21 µM (inactive)
GI50 (NCI/ADR-RES): 26.7 µM (inactive)
GI50 (OVCAR-3): 16.8 µM (inactive)
GI50 (OVCAR-4): 48.5 µM (inactive)
GI50 (OVCAR-5): 19.6 µM (inactive)
GI50 (OVCAR-8): 22.8 µM (inactive)
GI50 (PC-3): 68.5 µM (inactive)
GI50 (RPMI-8226): 17.1 µM (inactive)
GI50 (RXF 393): 33.3 µM (inactive)
GI50 (SF-268): 36.6 µM (inactive)
GI50 (SF-295): > 100 µM (inactive)
GI50 (SF-539): 15.1 µM (inactive)
GI50 (SK-MEL-28): 25.2 µM (inactive)
GI50 (SK-MEL-2): 86.9 µM (inactive)
GI50 (SK-MEL-5): 30 µM (inactive)
GI50 (SK-OV-3): > 100 µM (inactive)
GI50 (SN12C): 45.2 µM (inactive)
GI50 (SNB-19): > 100 µM (inactive)
GI50 (SNB-75): > 100 µM (inactive)
GI50 (SW-620): 5.55 µM (inactive)
GI50 (T47D): 24 µM (inactive)
GI50 (TK-10): 12.6 µM (inactive)
GI50 (U-251): 32.4 µM (inactive)
GI50 (UACC-257): 26.3 µM (inactive)
GI50 (UACC-62): 19 µM (inactive)
GI50 (UO-31): 18.4 µM (inactive)
